Results: patent US8623917B2, “Uses of prostacyclin analogs” (The Regents of the University of Colorado, a body corporate, priority 2005, dated 2014)

How the values were obtained:
[1] = system: MCA/BHT-induced lung tumors; experiment: MCA/BHT lung tumorigenesis protocol, oral Iloprost in diet; type: in vivo, FVB/N mice
Experimental: (§1) Transgenic mice (Tg^+) and wildtype littermates (Tg^−), 8 to 12 weeks of age, were subjected to two distinct lung carcinogenesis protocols. In the first model, urethane (ethyl carbamate), a carcinogen which selectively induces pulmonary adenomas through genetic mutations in the oncogene ras, was administered in a single intraperitoneal (ip) dose. […] BHT is a tumor promoter and induces reversible pulmonary damage characterized by alveolar type I cell necrosis, selective pulmonary inflammation, and hyperplasia of alveolar type II cells. Controls for both models consisted of mice injected with vehicle alone. The oral administration of Iloprost was investigated and found to have a similar beneficial effects to PGIS overexpression. FVB/N mice were fed a diet of low (0.1%) or high (3.0%) dose Iloprost continuously throughout the experiment and then were subjected to tumorigenesis protocols with either urethane or MCA/BHT. At the conclusion of the experiments, animals were euthanized and tumors enumerated.

[2] = system: cancer metastasis to the lung; settings: Iloprost administered to mice; cited from earlier work
[3] = system: urethane-induced lung tumors; experiment: Urethane lung tumorigenesis protocol, oral Iloprost in diet; type: in vivo, FVB/N mice
Experimental: as §1

[4] = 3.0% Iloprost diet compared with 0.1%
[5] = diet of low (0.1%) or high (3.0%) dose Iloprost continuously

## CC#CCC(C)[C@H](O)/C=C/[C@@H]1[C@H]2C/C(=C/CCCC(=O)O)C[C@H]2C[C@H]1O (some centres unmarked) [Iloprost]
[1]; [4]
  reduction in multiplicity, high versus low dose: greater reduction in multiplicity
[1]; [5]
  tumor multiplicity: significant reduction in tumor multiplicity
[2]
  prevention of cancer metastasis to the lung: did not prevent cancer metastasis to the lung
[3]; [4]
  reduction in multiplicity, high versus low dose: greater reduction in multiplicity
[3]; [5]
  tumor multiplicity: significant reduction in tumor multiplicity
